In US20170165247A1, “CRYSTALLINE COMPOUNDS OF DABIGATRAN ETEXILATE” (OLON S.p.A., priority 2014, published 2017):

Columns and labels:
[1] = Kinetic dissolution of tablet in phosphate buffer pH 4.5; type: physicochemical; conditions: for Average Conc.: tablet dissolution
Protocol: Kinetic Dissolution Experimental Conditions for Tablet Dissolution Dissolution Medium: […] Temperature: 37±0.5° C. Volume: 80 mL Time: 2 hrs Sample: Tablet (weight 200 mg) Stirring: Paddle 100 rpm Sampling time: 5 min, 15 min, 25 min, 35 min, 45 min, 60 min and 120 min. Repetitions: 2 for each experiment At the time fixed, withdraw 3 mL from each vessel. Reinstate the withdrawn volume. Filter each solution with 0.20 μm filter, discarding the first 1 mL. […] Each withdrawal was analyzed without further dilution. The sample was analyzed using the chromatographic conditions reported herein.

[2] = Thermodynamic solubility test in buffer solution (HPLC); type: physicochemical; conditions: buffer pH 4.5, 37° C., 24 hours
Protocol: The solubility tests were performed in a buffer solution at ph 4.5 and compared with the solubility data of dabigatran etexilate mesylate (commercial form).
Thermodynamic Solubility Tests
The sample (approx. 50 mg) was weighted in a vial and left under magnetic stirring (approx. 300 rpm) in approx. 2 mL of buffer solution at 37° C. for 24 hours. The experiments were carried out at pH 4.5 and pH 6.8. The suspensions were filtered with 0.45 μm filter and analyzed by HPLC method previously reported. From the obtained area an opportune dilution of the sample was performed to obtain a value consistent with the Calibration Curve. Every diluted sample was analyzed by HPLC and the results were interpolated by the calibration curve.
Each experiment was replicated twice.

Average Conc. ([1]; pH 4.5, time 5 min)	Average Conc. ([1]; pH 4.5, time 15 min)	Average Conc. ([1]; pH 4.5, time 25 min)	Average Conc. ([1]; pH 4.5, time 35 min)	Average Conc. ([1]; pH 4.5, time 45 min)	Average Conc. ([1]; pH 4.5, time 60 min)	Average Conc. ([1]; pH 4.5, time 120 min)	dissolution rate compared with the mesylate salt (in words) ([1]; kinetic dissolution, phosphate buffer pH 4.5, 37° C.)	dissolution rate, times higher than the mesylate derivative ([1]; tablet, phosphate buffer pH 4.5, 37° C., paddle 100 rpm, compared with mesylate)	Molecule	Average Conc. [2] [µg/mL]
8.76	11.06	12.26	13.74	15.52	17.21	28.89	–	–	CCCCCCOC(=O)N=C(N)c1ccc(NCc2nc3cc(C(=O)N(CCC(=O)OCC)c4ccccn4)ccc3n2C)cc1.O=C(O)c1cc(=O)[nH]c(=O)[nH]1 [Dabigatran/orotate 1/1]	–
6.86	9.09	11.40	13.28	15.96	18.55	26.44	–	–	CCCCCCOC(=O)NC(=N)c1ccc(NCc2nc3cc(C(=O)N(CCC(=O)OCC)c4ccccn4)ccc3n2C)cc1.CS(=O)(=O)O [Dabigatran/mesylate 1/1]	–

The remaining lines, values behind:

Molecule	Average Conc. ([1]; pH 4.5, time 5 min)	Average Conc. ([1]; pH 4.5, time 15 min)	Average Conc. ([1]; pH 4.5, time 25 min)	Average Conc. ([1]; pH 4.5, time 35 min)	Average Conc. ([1]; pH 4.5, time 45 min)	Average Conc. ([1]; pH 4.5, time 60 min)	Average Conc. ([1]; pH 4.5, time 120 min)	dissolution rate compared with the mesylate salt (in words) ([1]; kinetic dissolution, phosphate buffer pH 4.5, 37° C.)	dissolution rate, times higher than the mesylate derivative ([1]; tablet, phosphate buffer pH 4.5, 37° C., paddle 100 rpm, compared with mesylate)	Average Conc. [2] [µg/mL]
CCCCCCOC(=O)N=C(N)c1ccc(NCc2nc3cc(C(=O)N(CCC(=O)OCC)c4ccccn4)ccc3n2C)cc1.O=C(O)c1cc(O)c(O)c(O)c1 [Dabigatran/gallate 1/1]	10.01	28.10	44.94	62.45	75.18	90.21	106.50	–	–	–
Dabigatran Etexilate Orotate Anhydrous Form a (Dabigatran/Orotic Acid 1/1 Mol/Mole)	–	–	–	–	–	–	–	comparable	more than 8.7 times	–
Gallate	–	–	–	–	–	–	–	–	–	0.40
